Measured values taken from patent US9573954B2, “Pyrazolopyrimidine compounds” (University Health Network, priority 2012, dated 2017).

Experiments:
[1] = tested on: Colon 12 tumor initiating cells; experiment: Tumor-initiating cell growth inhibition, Alamar Blue assay, colon TICs; assay type: cell-based; conditions: 216 h; Table 2; colon TICs, 9 days, Alamar Blue; read-out: Tumor Initiating Cell GI50 Range Colon 12
In short: (§1)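 Colon TICs (4,000/well, non-TC plates) and ovarian TICs (1,000/well, TC plates) kept in serum-free DMEM:F12 with B-27, heparin, bFGF and EGF. Compound added after 24 h at 0.1% DMSO, then 9 days (colon) or 6 days (ovarian) at 37° C. GI50 from Alamar Blue fluorescence (ex 544/em 590) after 4 h.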

[2] = tested on: colon cancer cells (HCT116); experiment: Cancer cell line growth inhibition, Sulforhodamine B assay, HCT116; assay type: cell-based; conditions: Homo sapiens, HCT-116, 120 h, Table 2; HCT116, 5 days, SRB; read-out: Cancer Cell Line GI50 Range HCT116
In short: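 HCT116 cells, 1000–4000 per well, seeded 24 h ahead, then treated 5 days with compound at 10 nM to 50 μM final in DMEM with 10% FBS. Growth measured by sulforhodamine B staining after TCA fixation, A570; GI50 from inhibition relative to DMSO-only cells.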

[3] = tested on: ovarian cancer cells (PA-1); experiment: Cancer cell line growth inhibition, Sulforhodamine B assay, PA-1; assay type: cell-based; conditions: 120 h; Table 2; PA-1, 5 days, SRB; read-out: Cancer Cell Line GI50 Range PA-1
In short: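 PA-1 ovarian cancer cells seeded 24 h before compound, then exposed to final 10 nM to 50 μM in DMEM/10% FBS for 5 days. Cell mass measured by TCA fixation and sulforhodamine B staining, absorbance 570 nm; GI50 derived from growth inhibition relative to DMSO-treated cells.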

[4] = target: T1, human TTK (Homo sapiens, UniProt P33981); experiment: TTK inhibition assay (indirect ELISA); assay type: biochemical; conditions: Table 2; 16 μM ATP (asterisk); read-out: TTK IC50 Range
T1 construct: Active TTK was purchased from Invitrogen as an amino terminal GST fusion of full length human TTK; purchased Invitrogen
T1 sequence (P33981 1-857): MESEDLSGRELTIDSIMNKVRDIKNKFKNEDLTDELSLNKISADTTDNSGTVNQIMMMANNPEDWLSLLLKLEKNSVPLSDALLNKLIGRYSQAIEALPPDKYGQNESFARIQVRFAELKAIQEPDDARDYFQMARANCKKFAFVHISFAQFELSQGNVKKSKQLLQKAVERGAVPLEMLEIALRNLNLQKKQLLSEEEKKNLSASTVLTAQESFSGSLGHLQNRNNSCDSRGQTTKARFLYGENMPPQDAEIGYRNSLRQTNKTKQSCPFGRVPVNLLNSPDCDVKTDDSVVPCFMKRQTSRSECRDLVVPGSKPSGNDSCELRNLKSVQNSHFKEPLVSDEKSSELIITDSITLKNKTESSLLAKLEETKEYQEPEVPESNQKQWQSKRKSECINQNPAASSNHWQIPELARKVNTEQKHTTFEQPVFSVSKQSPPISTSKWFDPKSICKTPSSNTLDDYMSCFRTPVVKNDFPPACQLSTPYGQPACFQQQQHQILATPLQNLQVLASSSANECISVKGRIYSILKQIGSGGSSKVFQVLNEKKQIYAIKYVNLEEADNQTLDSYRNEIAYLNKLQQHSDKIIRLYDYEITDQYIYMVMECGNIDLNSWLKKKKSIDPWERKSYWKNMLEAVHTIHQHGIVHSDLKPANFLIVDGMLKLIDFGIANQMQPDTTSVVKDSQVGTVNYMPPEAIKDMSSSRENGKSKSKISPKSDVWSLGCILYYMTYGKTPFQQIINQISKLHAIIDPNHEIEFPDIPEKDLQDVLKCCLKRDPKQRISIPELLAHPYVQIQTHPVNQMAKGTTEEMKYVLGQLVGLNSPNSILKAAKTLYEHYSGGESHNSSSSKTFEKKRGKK
In short: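 Activity detected by indirect ELISA after compounds sat with full-length GST-TTK for 5 min prior to starting the reaction with ATP. IC50 came from a four-parameter logistic curve of % inhibition, calculated against background and uninhibited control wells.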

[5] = tested on: Ovarian 2393A tumor initiating cells; experiment: Tumor-initiating cell growth inhibition, Alamar Blue assay, ovarian TICs; assay type: cell-based; conditions: 144 h; Table 2; ovarian TICs, 6 days, Alamar Blue; read-out: Tumor Initiating Cell GI50 Range Ovarian 2393A
In short: as §1

[6] = tested on: breast cancer cells (MDA-MB-231); experiment: Cancer cell line growth inhibition, Sulforhodamine B assay, MDA-MB-231; assay type: cell-based; conditions: Homo sapiens, 120 h; Table 2; MDA-MB-231, 5 days, SRB; read-out: Cancer Cell Line GI50 Range MDA-MB-231
Experimental: Breast cancer cells (MDA-MB-231 and MDA-MB-468), colon cancer cells (HCT116) and ovarian cancer cells (PA-1 and OVCAR-3) were seeded (1000 to 4000 in 80 μl per well depending on the cell growth rate) into 96 well plates 24 hours before compound overlay. Compounds were prepared as 10 mM stock solutions in 100% DMSO which were diluted with DMEM (Dulbecco's Modified Eagle's Medium) cell growth Medium (Invitrogen, Burlington, ON, Canada) containing 10% FBS (Fetal Bovine Serum) to concentrations ranging from 50 nM to 250 μM. Aliquots (20 μl) from each concentration were overlaid to 80 μl of the pre-seeded cells in the 96 well plates to make final concentrations of 10 nM to 50 μM. The cells were cultured for 5 days before the Sulforhodamine B assay (SRB) was performed to determine the compound's cell growth inhibition activity.
Sulforhodamine B (purchased from Sigma, Oakville, ON, Canada) is a water-soluble dye that binds to the basic amino acids of the cellular proteins. Thus, colorimetric measurement of the bound dye provides an estimate of the total protein mass that is related to the cell number. the cells are fixed in situ by gently aspirating off the culture media and adding 50 μl ice cold 10% Trichloroacetic Acid (TCA) per well and incubate at 4° C. for 30-60 min, The plates are washed with H2O five times and allowed to air dry for 5 min. Addition of 50 μl 0.4% (w/v) SRB solution in 1% (v/v) acetic acid to each well and incubation for 30 min at RT completes the staining reaction. Following staining, plates are washed four times with 1% acetic acid to remove unbound dye and then allowed to air dry for 5 min. The stain is solubilized with 100 μl of 10 mM Tris pH 10.5 per well. Absorbance is read at 570 nm.
The percentage (%) of relative growth inhibition was calculated by comparing to DMSO treated only cells (100%). GI50's were determined for compounds with cytotoxic activity. The GI50 was calculated using GraphPad PRISM software (GraphPad Software, Inc., San Diego, Calif., USA).
In Table 2 below, GI50 value ranges for compound examples against breast cancer cell lines (MDA-MB-231), colon cancer cell lines (HCT116) and ovarian cancer cell lines (PA-1) are given.

Structure (SMILES)	GI50 [1]	GI50 [2]	GI50 [3]	IC50 [4]	GI50 [5]	GI50 [6]
Cc1cc(-c2cnn3c(NCCCN4CCOCC4)cc(Oc4ccccc4)nc23)ccc1C(=O)NC1CC1 [Example B19, N-cyclopropyl-2-methyl-4-(7-((3-morpholinopropyl)amino)-5-phenoxypyrazolo[1,5-a]pyrimidin-3-yl)benzamide]	100 to 500 nM	100 to 500 nM	≤ 100 nM	< 100 nM	100 to 500 nM	100 to 500 nM
Cc1cc(-c2cnn3c(NCCC4CCOCC4)cc(Oc4ccccc4)nc23)ccc1C(=O)NC1CC1 [Example B20, N-cyclopropyl-2-methyl-4-(5-phenoxy-7-((2-(tetrahydro-2H-pyran-4-yl)ethyl)amino)pyrazolo[1,5-a]pyrimidin-3-yl)benzamide]	≤ 100 nM	≤ 100 nM	≤ 100 nM	< 100 nM	≤ 100 nM	≤ 100 nM
